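These data come from cells grown in 96-well plates and exposed to compound for 48 hours at five concentrations. Definition used: TGI = concentration required for complete inhibition of growth.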
Experiments:
Experiment in all cases: inhibition of tumour cell growth, NCI panel, 48 h
SN12C renal = system: SN12C renal
786-0 renal = system: 786-0 renal
M14 melanoma = system: M14 melanoma
PC-3 prostate = system: PC-3 prostate
SK-MEL-28 melanoma = system: SK-MEL-28 melanoma
A498 renal = system: A498 renal
SF-539 CNS = system: SF-539 CNS
HOP-62 NSCLC = system: HOP-62 NSCLC
OVCAR-8 ovarian = system: OVCAR-8 ovarian
XF 498 CNS = system: XF 498 CNS
RXF 393 renal = system: RXF 393 renal
ACHN renal = system: ACHN renal
OVCAR-4 ovarian = system: OVCAR-4 ovarian
MALME-3M melanoma = system: MALME-3M melanoma
SNB-78 CNS = system: SNB-78 CNS
HS 578T breast = system: HS 578T breast
TK-10 renal = system: TK-10 renal
LXFL 529 NSCLC = system: LXFL 529 NSCLC
SW-620 colon = system: SW-620 colon
SR leukemia = system: SR leukemia
DU-145 prostate = system: DU-145 prostate
MDA-MB-435 = system: MDA-MB-435
DLD-1 colon = system: DLD-1 colon
NCI/ADR-RES ovarian = system: NCI/ADR-RES ovarian
OVCAR-5 ovarian = system: OVCAR-5 ovarian
CAKI-1 renal = system: CAKI-1 renal
A549 NSCLC = system: A549 NSCLC
SF-295 CNS = system: SF-295 CNS
RPMI-8226 leukemia = system: RPMI-8226 leukemia
EKVX NSCLC = system: EKVX NSCLC
SF-268 CNS = system: SF-268 CNS
OVCAR-3 ovarian = system: OVCAR-3 ovarian
HL-60(TB) leukemia = system: HL-60(TB) leukemia
HOP-18 NSCLC = system: HOP-18 NSCLC
HCC-2998 colon = system: HCC-2998 colon
HT29 colon = system: HT29 colon
IGROV1 ovarian = system: IGROV1 ovarian
HOP-92 NSCLC = system: HOP-92 NSCLC
COLO 205 colon = system: COLO 205 colon
LOX IMVI melanoma = system: LOX IMVI melanoma
K-562 leukemia = system: K-562 leukemia
MDA-N = system: MDA-N
SK-MEL-5 melanoma = system: SK-MEL-5 melanoma
HCT-116 colon = system: HCT-116 colon
UACC-62 melanoma = system: UACC-62 melanoma
KM12 colon = system: KM12 colon
MCF7 breast = system: MCF7 breast
M19-MEL melanoma = system: M19-MEL melanoma
SNB-75 CNS = system: SNB-75 CNS
BT-549 breast = system: BT-549 breast
SK-MEL-2 melanoma = system: SK-MEL-2 melanoma
HCT-15 colon = system: HCT-15 colon
UACC-257 melanoma = system: UACC-257 melanoma
NCI-H23 lung = system: NCI-H23 lung
U251 CNS = system: U251 CNS
NCI-H226 lung = system: NCI-H226 lung
NCI-H522 lung = system: NCI-H522 lung
SNB-19 CNS = system: SNB-19 CNS
UO-31 renal = system: UO-31 renal
MDA-MB-231 breast = system: MDA-MB-231 breast
T-47D breast = system: T-47D breast
SK-OV-3 ovarian = system: SK-OV-3 ovarian
NCI-H460 lung = system: NCI-H460 lung
DMS 273 small cell lung = system: DMS 273 small cell lung
CCRF-CEM leukemia = system: CCRF-CEM leukemia
MOLT-4 leukemia = system: MOLT-4 leukemia

## O=C1C(c2ccc([N+](=O)[O-])cc2)=C(Cl)C(=O)c2c(O)cccc21
SN12C renal
  TGI: 39.9 µM
786-0 renal
  TGI: 28.9 µM
M14 melanoma
  TGI: 46.5 µM
PC-3 prostate
  TGI: 57.3 µM
SK-MEL-28 melanoma
  TGI: 33.9 µM
A498 renal
  TGI: 59.3 µM
SF-539 CNS
  TGI: 39.6 µM
HOP-62 NSCLC
  TGI: > 100 µM
OVCAR-8 ovarian
  TGI: > 86.4 µM
XF 498 CNS
  TGI: 22.4 µM
RXF 393 renal
  TGI: 29.1 µM
ACHN renal
  TGI: 33 µM
OVCAR-4 ovarian
  TGI: 32.1 µM
MALME-3M melanoma
  TGI: 34.8 µM
SNB-78 CNS
  TGI: 63.8 µM
HS 578T breast
  TGI: 65.9 µM
TK-10 renal
  TGI: 34.7 µM
LXFL 529 NSCLC
  TGI: 23.2 µM
SW-620 colon
  TGI: 15.5 µM
SR leukemia
  TGI: > 100 µM
DU-145 prostate
  TGI: 42.7 µM
MDA-MB-435
  TGI: 31.9 µM
DLD-1 colon
  TGI: 25.3 µM
NCI/ADR-RES ovarian
  TGI: 66.2 µM
OVCAR-5 ovarian
  TGI: > 100 µM
CAKI-1 renal
  TGI: 50.2 µM
A549 NSCLC
  TGI: > 100 µM
SF-295 CNS
  TGI: 98.9 µM
RPMI-8226 leukemia
  TGI: > 100 µM
EKVX NSCLC
  TGI: 46.6 µM
SF-268 CNS
  TGI: 49.8 µM
OVCAR-3 ovarian
  TGI: 32.6 µM
HL-60(TB) leukemia
  TGI: > 100 µM
HOP-18 NSCLC
  TGI: 19.6 µM
HCC-2998 colon
  TGI: > 100 µM
HT29 colon
  TGI: 43.5 µM
IGROV1 ovarian
  TGI: 42.4 µM
HOP-92 NSCLC
  TGI: 33 µM
COLO 205 colon
  TGI: 32.4 µM
LOX IMVI melanoma
  TGI: 32.6 µM
K-562 leukemia
  TGI: > 100 µM
MDA-N
  TGI: 34.5 µM
SK-MEL-5 melanoma
  TGI: > 54.8 µM
HCT-116 colon
  TGI: > 56.6 µM
UACC-62 melanoma
  TGI: 35.6 µM
KM12 colon
  TGI: > 62.6 µM
MCF7 breast
  TGI: 37.7 µM
M19-MEL melanoma
  TGI: 36 µM
SNB-75 CNS
  TGI: 96.9 µM
BT-549 breast
  TGI: 32.1 µM
SK-MEL-2 melanoma
  TGI: 34.3 µM
HCT-15 colon
  TGI: 54 µM
UACC-257 melanoma
  TGI: 32.9 µM
NCI-H23 lung
  TGI: 36.6 µM
U251 CNS
  TGI: 32.6 µM
NCI-H226 lung
  TGI: > 59.3 µM
NCI-H522 lung
  TGI: 21.6 µM
SNB-19 CNS
  TGI: 49.6 µM
UO-31 renal
  TGI: 19.1 µM
MDA-MB-231 breast
  TGI: 31.8 µM
T-47D breast
  TGI: 52.6 µM
SK-OV-3 ovarian
  TGI: > 100 µM
NCI-H460 lung
  TGI: > 100 µM
DMS 273 small cell lung
  TGI: > 100 µM
CCRF-CEM leukemia
  TGI: > 100 µM
MOLT-4 leukemia
  TGI: > 100 µM
